Key:
[1] = tested on: S. aureus ATCC 29213; test: Broth microdilution MIC assay; type: cell-based; conditions: Staphylococcus aureus, ATCC29213; broth microdilution, 16-20 hours at 37° C.; read-out: S. aureus 29213 MIC
Procedure, shortened: (§1)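 Per CLSI: log-phase cultures (3-5 h, 37° C) seeded at 5×10^5 CFU/mL into cation-supplemented Mueller-Hinton broth containing 2-fold compound dilutions. After 16-20 h at 37° C, MIC taken visually as lowest growth-free well, for S. aureus ATCC 29213 and E. coli 901C.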

[2] = tested on: hyper-permeable E. coli 901C; test: Broth microdilution MIC assay; type: cell-based; conditions: Escherichia coli, read-out: E. coli 901C MIC
Procedure, shortened: as §1

[3] = tested on: E. coli DH5α/pLBII-CTX-M15; test: Broth microdilution MIC assay, engineered strain producing CTX-M15; type: cell-based, Escherichia coli; conditions: Escherichia coli, read-out: E. coli DH5α/pLBII-CTX-M15 Microbiological Activity (MIC)
Procedure, shortened: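 CLSI broth microdilution in cation-supplemented Mueller-Hinton broth, 2-fold compound dilutions, 5×10^5 CFU/mL inoculum, 16-20 h at 37° C, MIC read visually as lowest concentration without growth. E. coli DH5α carries CTX-M15 on pLBII under Lac promoter, or empty pLBII as control.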

[4] = target: T1, PBP3 from Escherichia coli (Escherichia coli, UniProt P0AD68); test: Fluorescence polarization competition binding assay with Bocillin-FL
T1 construct: made in house
Source text: To determine the ability of boronic acid-based test PBP inhibitors to bind Penicillin Binding Proteins (PBPs), Bocillin-FL (fluorescently-labeled penicillin V; ThermoFisher Scientific) was used in a fluorescence polarization (FP) competition binding assay to assess boronic acid PBP inhibitor binding to PBP3 from Escherichia coli. PBP3 from Escherichia coli was cloned and purified as described previously (King, D. T, et al., ACS Infectious Diseases 2015, 1, 175-184). To establish assay conditions for competition binding, an enzyme titration/saturation binding experiment was performed. Bocillin-FL was prepared at […] in a buffer comprised of 50 mM Hepes (pH 8.0), 300 mM NaCl and 5% (v/v) glycerol. Saturation binding was performed by mixing […] of PBP3 ranging in concentrations from […] with 40 μl of the 0.2 μM Bocillin-FL solution, in individual wells of a black 384-well microplate. FP was measured immediately upon addition of PBP3 (Ex, Em), using a Cytation3 (BioTek) microplate reader and measured continuously for 60 minutes. […] The competition binding assay was validated using the beta-lactam ampicillin, with Bocillin-FL at a final concentration of 0.1 μM, PBP3 at a final concentration of 1.5 μM and concentrations of ampicillin from 0-1000 μM. PBP3 was incubated with ampicillin at different concentrations in a black 384-well microplate (Corning) for 30 minutes, then Bocillin-FL added and the FP immediately measured for 60 minutes. […] Binding assays for boronic acid PBP inhibitors were performed in an identical fashion. Representative results are shown in Table 3, where A represents a potency of >500 μM, B represents a potency between 30 μM and 500 μM inclusive, and C represents a potency of <30 μM. NT=Not Tested.

[5] = tested on: E. coli DH5α/pLBII; test: Broth microdilution MIC assay, empty vector control strain; type: cell-based; conditions: Escherichia coli, read-out: E. coli DH5α/pLBII Microbiological Activity (MIC)
Protocol: To determine the ability of test compounds to potentiate the inhibition of the growth of bacterial strains, classic cell based broth microdilution MIC assays were employed. MIC assays are performed according to CLSI methods except where otherwise noted (CLSI, 2011 and CLSI, 2009). The reference strain S. aureus ATCC 29213 and the hyper-permeable E. coli 901C were used to determine the ability of the PBP compounds to inhibit bacterial growth. Briefly, cryo-preserved bacterial cultures of clinical strains are streaked for isolation on appropriate agar medium, in this case Mueller Hinton II agar. Following incubation to allow formation of colonies these plates are sealed with parafilm and stored refrigerated for up to two weeks. For preparation of assay inocula and to ensure low variability, at least 5 colonies are picked from the agar plates with an inoculating loop and aseptically transferred to a culture tube containing 3 mL of Mueller-Hinton Broth (supplemented with divalent cations to required levels based on Manufacturers' certification). The broth culture is grown for 3-5 hours at 37° C. with shaking at 200 rpm. Meanwhile, 2-fold serial dilutions of test compounds are conducted in a 96 well plate with a final volume of 75 μL per well at 2-fold the final desired concentration. After the dilution plates are set up the growing cultures are then diluted in a cuvette containing MH II broth and the optical density is measured at 600 nm. Inocula are diluted such that 75 μL of this culture in Mueller-Hinton Broth results in a starting bacterial concentration of 5×10^5 CFU/mL when added to the dilution plates. The plates are incubated 16-20 hours at 37° C. The MIC is read visually as the lowest concentration well with no bacterial growth.
To determine if test compounds were affected by CTX-M15, the most abundant extended spectrum β-lactamase in clinical settings worldwide, the inhibition of the growth of an engineered strain of Escherichia coli harboring CTX-M15 was tested. This strain was constructed by cloning the gene encoding CTX-M15 into the NdeI and BamHI restriction endonuclease sites of plasmid pLBII, placing the gene(s) under the control of the Lac promoter. The constructed expression plasmid for CTX-M15 was used to transform competent E. coli DH5a cells to make the engineered strain, including an empty pLBII vector control strain. The classic cell based broth microdilution MIC assay was employed as described above with the addition of control antibiotics, known to be degraded by β-lactamases (Ceftazidime, piperacillin and piperacillin+tazobactam).

T1 sequence (P0AD68 1-577): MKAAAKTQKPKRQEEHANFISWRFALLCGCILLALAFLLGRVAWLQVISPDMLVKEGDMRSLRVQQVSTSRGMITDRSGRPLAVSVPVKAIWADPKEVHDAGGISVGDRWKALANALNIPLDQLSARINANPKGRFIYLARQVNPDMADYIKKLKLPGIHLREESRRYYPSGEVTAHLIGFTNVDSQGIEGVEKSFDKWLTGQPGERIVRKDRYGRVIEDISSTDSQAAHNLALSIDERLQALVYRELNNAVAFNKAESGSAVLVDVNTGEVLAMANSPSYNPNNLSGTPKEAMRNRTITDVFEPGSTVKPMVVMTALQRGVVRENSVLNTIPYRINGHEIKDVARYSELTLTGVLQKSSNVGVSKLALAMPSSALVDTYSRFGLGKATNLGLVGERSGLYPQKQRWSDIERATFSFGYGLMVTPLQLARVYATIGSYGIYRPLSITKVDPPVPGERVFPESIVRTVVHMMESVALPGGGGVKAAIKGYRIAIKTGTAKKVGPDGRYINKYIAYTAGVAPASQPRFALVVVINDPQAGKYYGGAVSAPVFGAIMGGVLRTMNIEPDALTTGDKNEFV

Row | Structure (SMILES) | MIC [1] [µg/mL] | MIC [2] [µg/mL] | MIC [3] [µg/mL] | EC50 [4] [µM] | MIC [5] [µg/mL]
1 | CCN1CCN(C(=O)N[C@@H](CO)C(=O)N[C@H]2Cc3cccc(C(=O)O)c3OB2O)C(=O)C1=O [Example 32, (R)-3-((S)-2-(4-Ethyl-2,3-dioxopiperazine-1-carboxamido)-3-hydroxy-propanamido)-2-hydroxy-3,4-dihydro-2H-benzo[e][1,2]oxaborinine-8-carboxylic acid] | > 128 | > 128 | > 512 | > 500 | > 512
2 | CCN1CCN(C(=O)N[C@H](CCC(N)=O)C(=O)N[C@H]2Cc3cccc(C(=O)O)c3OB2O)C(=O)C1=O [Example 50, (R)-3-((R)-5-amino-2-(4-ethyl-2,3-dioxopiperazine-1-carboxamido)-5-oxopentanamide)-2-hydroxy-3,4-dihydro-2H-benzo[e][1,2]oxaborinine-8-carboxylic acid] | > 128 | < 64 | 32 to 64 | > 500 | 32 to 64
3 | CCN1CCN(C(=O)N[C@@H](C(=O)N[C@H]2Cc3cccc(C(=O)O)c3OB2O)c2ccccc2)C(=O)C1=O [Example 11, (R)-3-((R)-2-(4-ethyl-2,3-dioxopiperazine-1-carboxamido)-2-phenylacetamido)-2-hydroxy-3,4-dihydro-2H-benzo[e][1,2]oxaborinine-8-carboxylic acid] | 64 to 128 | < 64 | 32 to 64 | < 30 | 32 to 64
4 | Nc1nc(C(NC(=O)N2CCN(O)C(=O)C2=O)C(=O)N[C@H]2Cc3cccc(C(=O)O)c3OB2O)cs1 (stereo partly drawn) [Example 72, (3R)-3-(2-(2-aminothiazol-4-yl)-2-(4-hydroxy-2,3-dioxopiperazine-1-carboxamido)acetamido)-2-hydroxy-3,4-dihydro-2H-benzo[e][1,2]oxaborinine-8-carboxylic acid] | 64 to 128 | < 64 | 128 to 256 | 30 to 500 | 128 to 256
5 | CCCCCCCN1CCN(C(=O)NC(C(=O)N[C@H]2Cc3cccc(C(=O)O)c3OB2O)c2csc(N)n2)C(=O)C1=O (stereo partly drawn) [Example 94, (3R)-3-(2-(2-aminothiazol-4-yl)-2-(4-heptyl-2,3-dioxopiperazine-1-carboxamido)acetamido)-2-hydroxy-3,4-dihydro-2H-benzo[e][1,2]oxaborinine-8-carboxylic acid] | 64 to 128 | < 64 | 128 to 256 | < 30 | 
6 | CCCCCCN1CCN(C(=O)NC(C(=O)N[C@H]2Cc3cccc(C(=O)O)c3OB2O)c2csc(N)n2)C(=O)C1=O (stereo partly drawn) [Example 93, (3R)-3-(2-(2-aminothiazol-4-yl)-2-(4-hexyl-2,3-dioxopiperazine-1-carboxamido)acetamido)-2-hydroxy-3,4-dihydro-2H-benzo[e][1,2]oxaborinine-8-carboxylic acid] | 64 to 128 | < 64 | 128 to 256 | < 30 | 
7 | CCN1CCN(C(=O)NCCN2CCN(C(=O)NC(C(=O)N[C@H]3Cc4cccc(C(=O)O)c4OB3O)c3csc(N)n3)C(=O)C2=O)C(=O)C1=O (stereo partly drawn) [Example 92, (3R)-3-(2-(2-aminothiazol-4-yl)-2-(4-(2-(4-ethyl-2,3-dioxopiperazine-1-carboxamido)ethyl)-2,3-dioxopiperazine-1-carboxamido)acetamido)-2-hydroxy-3,4-dihydro-2H-benzo[e][1,2]oxaborinine-8-carboxylic acid] | > 128 | < 64 | 128 to 256 | 30 to 500 | 
8 | CCN1CCN(C(=O)NC(C(=O)N[C@H]2Cc3cccc(C(=O)O)c3OB2O)c2csc(NCCN)n2)C(=O)C1=O (stereo partly drawn) [Example 63, (3R)-3-(2-(2-((2-aminoethyl)amino)thiazol-4-yl)-2-(4-ethyl-2,3-dioxopiperazine-1-carboxamido)acetamido)-2-hydroxy-3,4-dihydro-2H-benzo[e][1,2]oxaborinine-8-carboxylic acid] | 64 to 128 | < 64 |  | 30 to 500 | 
9 | Nc1nc(C(NS(=O)(=O)N2CCOCC2)C(=O)N[C@H]2Cc3cccc(C(=O)O)c3OB2O)cs1 (stereo partly drawn) [Example 24, (3R)-3-(2-(2-aminothiazol-4-yl)-2-(morpholine-4-sulfonamido)acetamido)-2-hydroxy-3,4-dihydro-2H-benzo[e][1,2]oxaborinine-8-carboxylic acid] | > 128 | < 64 | 128 to 256 |  | 128 to 256
10 | Nc1nc(C(NC(=O)N2CCOCC2)C(=O)N[C@H]2Cc3cccc(C(=O)O)c3OB2O)cs1 (stereo partly drawn) [Example 18, (3R)-3-(2-(2-aminothiazol-4-yl)-2-(morpholine-4-carboxamido)acetamido)-2-hydroxy-3,4-dihydro-2H-benzo[e][1,2]oxaborinine-8-carboxylic acid] | > 128 | < 64 | 128 to 256 |  | 128 to 256
11 | COc1ccc([C@H](N)C(=O)N[C@H]2Cc3cccc(C(=O)O)c3OB2O)cc1 [Example 5, (R)-3-((S)-2-amino-2-(4-methoxyphenyl)acetamido)-2-hydroxy-3,4-dihydro-2H-benzo[e][1,2]oxaborinine-8-carboxylic acid] | 64 to 128 | > 128 | > 512 |  | > 512
12 | N[C@H](Cc1ccccc1)C(=O)N[C@H]1Cc2cccc(C(=O)O)c2OB1O [Example 1, (R)-3-((R)-2-amino-3-phenylpropanamido)-2-hydroxy-3,4-dihydro-2H-benzo[e][1,2]oxaborinine-8-carboxylic acid] | > 128 | > 128 | > 512 |  | > 512
13 | Nc1nc(C(NC(=O)Cc2ncccn2)C(=O)N[C@H]2Cc3cccc(C(=O)O)c3OB2O)cs1 (stereo partly drawn) [Example 21, (3R)-3-(2-(2-aminothiazol-4-yl)-2-(2-(pyrimidin-2-yl)acetamido)acetamido)-2-hydroxy-3,4-dihydro-2H-benzo[e][1,2]oxaborinine-8-carboxylic acid] | 64 to 128 | 64 to 128 | > 512 |  | > 512
14 | CCN1CCN(C(=O)N[C@@H](C(=O)N[C@H]2Cc3cccc(C(=O)O)c3OB2O)C(C)(C)O)C(=O)C1=O [Example 86, (R)-3-((R)-2-(4-ethyl-2,3-dioxopiperazine-1-carboxamido)-3-hydroxy-3-methylbutanamido)-2-hydroxy-3,4-dihydro-2H-benzo[e][1,2]oxaborinine-8-carboxylic acid] | > 128 | < 64 | 32 to 64 | 30 to 500 | 

Reference: patent US11332485B2, “Penicillin-binding protein inhibitors” (priority 2017, dated 2022)
